Results as given in article PMC8282186, “Identification of a gustatory receptor tuned to sinigrin in the cabbage butterfly Pieris rapae” (PLoS Genetics, 2021).

Target: T1, PrapGr28 (Pieris rapae, UniProt Z9RYY0XAY3)
T1 construct: also UAS-PrapGr28 in Drosophila Gr5a sweet neurons; oligomer unknown
T1 sequence (Z9RYY0XAY3 1-399): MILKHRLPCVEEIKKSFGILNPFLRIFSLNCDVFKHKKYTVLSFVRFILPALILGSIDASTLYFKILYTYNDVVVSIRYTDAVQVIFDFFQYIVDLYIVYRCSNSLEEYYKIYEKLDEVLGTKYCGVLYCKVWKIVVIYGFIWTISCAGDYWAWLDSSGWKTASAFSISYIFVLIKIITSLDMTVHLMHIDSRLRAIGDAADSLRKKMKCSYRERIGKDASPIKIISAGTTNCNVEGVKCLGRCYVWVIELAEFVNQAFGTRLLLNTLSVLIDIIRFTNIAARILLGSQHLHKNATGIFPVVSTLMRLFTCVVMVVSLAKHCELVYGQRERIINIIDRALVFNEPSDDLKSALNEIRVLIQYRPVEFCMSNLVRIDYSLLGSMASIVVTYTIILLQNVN
Assay: two-electrode voltage clamp, inward current in Xenopus oocytes
Type: cell-based
Details: agonist; PrapGr28 expressed alone; holding potential -80 mV; 0.1-50 mM dose range; also tip recording of Drosophila L-type sensilla expressing PrapGr28
Description: two-electrode voltage clamp, inward current in Xenopus oocytes on […]28 | the oocytes expressing […]28 selectively responded to sinigrin

Compound: C=CC/C(=N/OS(=O)(=O)O)S[C@@H]1O[C@H](CO)[C@@H](O)[C@H](O)[C@H]1O [sinigrin]
- inward current response at 1 mM: the oocytes expressing PrapGr28 selectively responded to sinigrin
